Data taken from ChEMBL document CHEMBL1201862, “PubChem BioAssay data set” (2004).
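Interpolation was linear, between the two tested concentrations surrounding the appropriate level; five concentrations were tested over 48 hours in 96-well plates. GI50: concentration for 50% inhibition of growth.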 The source made the active and inactive calls. Rule as the data show it: active = GI50 up to about 1.1 µM and inactive = higher.

Key:
Assay in all cases: inhibition of tumour cell growth, NCI panel, 48 h
RXF 393 = system: RXF 393
EKVX = system: EKVX
IGROV-1 = system: IGROV-1
SR = system: SR
A549 = system: A549
CCRF-CEM = system: CCRF-CEM
UO-31 = system: UO-31
SK-MEL-5 = system: SK-MEL-5
NCI-H522 = system: NCI-H522
MCF7 = system: MCF7
SN12C = system: SN12C
HOP-62 = system: HOP-62
SK-OV-3 = system: SK-OV-3
OVCAR-8 = system: OVCAR-8
NCI-H226 = system: NCI-H226
M14 = system: M14
HL-60 = system: HL-60
OVCAR-5 = system: OVCAR-5
SF-539 = system: SF-539
OVCAR-3 = system: OVCAR-3

SMILES	GI50 (RXF 393)	GI50 (EKVX)	GI50 (IGROV-1)	GI50 (SR)	GI50 (A549)	GI50 (CCRF-CEM)	GI50 (UO-31)	GI50 (SK-MEL-5)	GI50 (NCI-H522)	GI50 (MCF7)	GI50 (SN12C)	GI50 (HOP-62)	GI50 (SK-OV-3)	GI50 (OVCAR-8)	GI50 (NCI-H226)	GI50 (M14)	GI50 (HL-60)	GI50 (OVCAR-5)	GI50 (SF-539)	GI50 (OVCAR-3)
COC1/C=C/C(C)C(C(C)C(OC)C(C)CCC(=O)C(C)C(C/C=C/N(C)C=O)OC)OC(=O)/C=C/C=C(\C)CC(OC)CC2=CC(=O)O[C@H](C2)C(C)C(OC)CC(OC)/C=C/C(C)C(OC)C1 (some centres not stated)	0.0148 µM (active)	0.084 µM (active)	0.0113 µM (active)	< 0.005 µM (active)	0.0288 µM (active)	< 0.005 µM (active)	0.0125 µM (active)	0.00518 µM (active)	0.00588 µM (active)	0.0292 µM (active)	0.014 µM (active)	< 0.005 µM (active)	0.00955 µM (active)	0.0224 µM (active)						
COc1nc2[nH]ccc2c(=O)[nH]1	> 100 µM (inactive)	> 100 µM (inactive)	> 100 µM (inactive)	> 100 µM (inactive)	> 100 µM (inactive)	> 100 µM (inactive)	> 100 µM (inactive)	> 100 µM (inactive)			> 100 µM (inactive)			> 100 µM (inactive)	0.41 µM (active)	> 100 µM (inactive)	> 100 µM (inactive)	> 100 µM (inactive)	> 100 µM (inactive)	
FC(F)(F)C(C1=NC(C(F)(F)F)(C(F)(F)F)N=C(N2CCOCC2)O1)C(F)(F)F	15.7 µM (inactive)	17.1 µM (inactive)	19.6 µM (inactive)	18.8 µM (inactive)	18.5 µM (inactive)	4.71 µM (inactive)	25.4 µM (inactive)	11.9 µM (inactive)	20.2 µM (inactive)	> 10 µM (inactive)	11.1 µM (inactive)		31.3 µM (inactive)	15.3 µM (inactive)		18.8 µM (inactive)	5.57 µM (inactive)	18.1 µM (inactive)	22.4 µM (inactive)	25.5 µM (inactive)
COc1ccc(C2COc3cc(O)c(O)cc3C2)cc1 (configuration not stated)	6.87 µM (inactive)	14.1 µM (inactive)	16.7 µM (inactive)		48.8 µM (inactive)	2.86 µM (inactive)	56.2 µM (inactive)	24.4 µM (inactive)	4.84 µM (inactive)	37.2 µM (inactive)	30.1 µM (inactive)	76.4 µM (inactive)	86.3 µM (inactive)	13.3 µM (inactive)	39.6 µM (inactive)		1.58 µM (inactive)	148 µM (inactive)	30.1 µM (inactive)	11.4 µM (inactive)
COC1OC(=O)[C@H]2O[N+]([O-])=C(C)[C@@H]12 (some centres not stated)	> 100 µM (inactive)	> 100 µM (inactive)	> 100 µM (inactive)		> 100 µM (inactive)	> 100 µM (inactive)	> 100 µM (inactive)	> 100 µM (inactive)	> 100 µM (inactive)	> 100 µM (inactive)	> 100 µM (inactive)	> 100 µM (inactive)	> 100 µM (inactive)	> 100 µM (inactive)	> 73.5 µM (inactive)		> 100 µM (inactive)	> 100 µM (inactive)	> 100 µM (inactive)	> 100 µM (inactive)
COc1ccc(CCCC(=O)O)c(C)c1	37.1 µM (inactive)	> 100 µM (inactive)	45.1 µM (inactive)	9.48 µM (inactive)	58.6 µM (inactive)	17.2 µM (inactive)	> 100 µM (inactive)	40.3 µM (inactive)	36.8 µM (inactive)		32 µM (inactive)	26.4 µM (inactive)		74.6 µM (inactive)	22.7 µM (inactive)	92.9 µM (inactive)	37.5 µM (inactive)	> 100 µM (inactive)		30.3 µM (inactive)
c1ccc(CSC(SCc2ccccc2)c2cccc3ccccc23)cc1	> 10 µM (inactive)	> 10 µM (inactive)	> 10 µM (inactive)	> 10 µM (inactive)	> 10 µM (inactive)	> 10 µM (inactive)	> 10 µM (inactive)	> 10 µM (inactive)	7.87 µM (inactive)	> 10 µM (inactive)	> 10 µM (inactive)	> 10 µM (inactive)	> 10 µM (inactive)	> 10 µM (inactive)	> 10 µM (inactive)	> 10 µM (inactive)	> 10 µM (inactive)	> 10 µM (inactive)	> 10 µM (inactive)	
CCN(CC)CCCC(C)Nc1cc(-c2ccccc2)nc2cc(OC)ccc12 (configuration not stated)			13.2 µM (inactive)	2.71 µM (inactive)		1.3 µM (inactive)	2.54 µM (inactive)		6.44 µM (inactive)			5.25 µM (inactive)	16.3 µM (inactive)			1.84 µM (inactive)	2.55 µM (inactive)	2.48 µM (inactive)	3.05 µM (inactive)	12.2 µM (inactive)
N#CC1(CCCI)CCCC1	11 µM (inactive)	47.4 µM (inactive)	> 100 µM (inactive)	15.4 µM (inactive)	20.6 µM (inactive)	11.5 µM (inactive)	27.9 µM (inactive)	12.9 µM (inactive)	3.24 µM (inactive)		12.3 µM (inactive)		64.4 µM (inactive)	51.1 µM (inactive)		5.83 µM (inactive)	6.1 µM (inactive)	25.1 µM (inactive)	15.5 µM (inactive)	16 µM (inactive)
Cc1c2ccncc2cc2c1[nH]c1ccccc12	2.68 µM (inactive)	4.4 µM (inactive)	6.22 µM (inactive)		3.22 µM (inactive)	3.78 µM (inactive)	3.45 µM (inactive)	3.97 µM (inactive)	3.92 µM (inactive)	1.57 µM (inactive)	1.58 µM (inactive)	8.71 µM (inactive)	5.65 µM (inactive)	3.44 µM (inactive)	6.14 µM (inactive)		3.41 µM (inactive)	4.34 µM (inactive)	2.48 µM (inactive)	5.6 µM (inactive)
NC1CCCCC1.O=P(O)(O)C(CSc1ccccc1)P(=O)(O)O	> 100 µM (inactive)	> 100 µM (inactive)	> 100 µM (inactive)		> 100 µM (inactive)	> 100 µM (inactive)	> 100 µM (inactive)	> 100 µM (inactive)	> 100 µM (inactive)	> 100 µM (inactive)	> 100 µM (inactive)	> 100 µM (inactive)	> 100 µM (inactive)	> 100 µM (inactive)	> 100 µM (inactive)		> 100 µM (inactive)	> 100 µM (inactive)	> 100 µM (inactive)	47.9 µM (inactive)
Cc1cc(N(CCC#N)S(=O)(=O)c2ccccc2)ccc1/C=N\c1cccc(C(=O)O)c1	> 100 µM (inactive)	> 100 µM (inactive)	> 100 µM (inactive)		> 100 µM (inactive)	> 100 µM (inactive)	53.3 µM (inactive)	83.6 µM (inactive)	> 100 µM (inactive)		> 100 µM (inactive)	> 100 µM (inactive)	> 100 µM (inactive)	> 100 µM (inactive)	> 100 µM (inactive)	> 100 µM (inactive)	> 100 µM (inactive)	> 100 µM (inactive)	> 100 µM (inactive)	> 100 µM (inactive)
CC1(C)CCc2c(ccc(C(=O)/C=C/c3ccc(O)cc3)c2O)O1 [DORSMANNIN A]	10.6 µM (inactive)	0.142 µM (active)	9.1 µM (inactive)	11.9 µM (inactive)	11.9 µM (inactive)	2.78 µM (inactive)	12.3 µM (inactive)	11.2 µM (inactive)		14.2 µM (inactive)	10.9 µM (inactive)	9.91 µM (inactive)	17.7 µM (inactive)	12 µM (inactive)	11.3 µM (inactive)	10.9 µM (inactive)	19.7 µM (inactive)	11.6 µM (inactive)	11.9 µM (inactive)	8.99 µM (inactive)
O=C(NC(COC(=O)C(Cc1ccccc1)NC(=O)c1ccccc1)Cc1ccccc1)c1ccccc1 (configuration not stated)		> 50 µM (inactive)	> 50 µM (inactive)	> 50 µM (inactive)	> 50 µM (inactive)		> 50 µM (inactive)		> 50 µM (inactive)	> 50 µM (inactive)		> 50 µM (inactive)	> 50 µM (inactive)	> 50 µM (inactive)		> 50 µM (inactive)	> 50 µM (inactive)	> 50 µM (inactive)	> 50 µM (inactive)	> 50 µM (inactive)
CCOC(=O)Nc1ccc(S(=O)(=O)NCCCl)cc1.CCOC(=O)Nc1ccc(S(=O)(=O)NCCCl)cc1.O=C(O)c1ccc(/N=N/Cl)cc1O		> 100 µM (inactive)	> 100 µM (inactive)	> 100 µM (inactive)	> 100 µM (inactive)	> 100 µM (inactive)	> 100 µM (inactive)	> 100 µM (inactive)	> 100 µM (inactive)		> 100 µM (inactive)	> 100 µM (inactive)	> 100 µM (inactive)	> 100 µM (inactive)	> 100 µM (inactive)	> 100 µM (inactive)	> 100 µM (inactive)	> 100 µM (inactive)	> 100 µM (inactive)	> 100 µM (inactive)
Cc1ccc([N+](=O)[O-])cc1NC(=O)C(=O)C(C(=O)c1ccccc1F)C1OC(=O)c2ccccc21 (configuration not stated)	20.5 µM (inactive)	46 µM (inactive)	59.7 µM (inactive)	30.3 µM (inactive)	50.1 µM (inactive)	26.8 µM (inactive)	49.1 µM (inactive)	63.1 µM (inactive)	20.3 µM (inactive)		33.8 µM (inactive)	40.7 µM (inactive)	46.5 µM (inactive)	25.2 µM (inactive)	16 µM (inactive)	66.8 µM (inactive)	26.9 µM (inactive)	61.4 µM (inactive)	24.5 µM (inactive)	
